# Results: patent US20240165104A1, “TREATMENT OF DEPRESSION” (priority 2021, published 2024)
# Where a name gives a salt, the structure may show the parent alone. Read-outs that look alike come from different tables or passages of the source.
# Experiments:
# plasma protein = experiment: Plasma protein binding; type: in vitro ADME; conditions: metabolites of bupropion
# [1] = Pharmacokinetics after administration of the subject combination; conditions: for AUC0-12 of metabolite relative to that of bupropion / Cmax of metabolite relative to peak level of bupropion: after administration of the subject combination; for apparent elimination half-life (metabolites): in vivo; for accumulation ratio at steady state based on AUC0-12 / accumulation ratio at steady state based on Cmax: given as the subject combination
# Plasma protein binding = type: in vitro ADME; conditions: plasma
# [2] = test system: patients with treatment resistant depression (TRD); experiment: Phase 3 randomized double-blind active controlled trial of DM/BU in treatment resistant depression (Example 1); type: in vivo, human
# Excerpt: Inclusion criteria for the open-label period included males or females 18-65 years of age, a history of inadequate response to 1 or 2 prior antidepressant treatments, established by the Antidepressant Treatment Response Questionnaire (ATRQ), and a Hamilton Depression Rating Scale (HAMD-17) total score of ≥18. Inclusion criteria for the double-blind period included inadequate response to 2 or 3 prior antidepressant treatments, including open-label period failure. Exclusion criteria included a history of electroconvulsive therapy, vagus nerve stimulation, transcranial magnetic stimulation or any experimental central nervous system treatment during the current episode or in the past 6 months, schizophrenia, bipolar disorder, obsessive compulsive disorder, psychiatric symptoms secondary to any other general medical condition.
# The change in depressive symptoms over time was measured using the Montgomery-Åsberg Depression Rating Scale (MADRS) and the Quick Inventory of Depressive Symptomatology-Self-Rated (QIDS-SR-16). The primary endpoint was the change from baseline in the MADRS after 6 weeks of treatment. The key secondary endpoints were the change from baseline in the MADRS after 1 week of treatment, after 2 weeks of treatment, the average change over entire 6-week double-blind treatment period, and the Sheehan Disability Scale (SDS). Other pre-specified secondary efficacy variables included the Cognitive subscale of the Massachusetts General Hospital Cognitive and Physical Functioning Questionnaire (CPFQ), and the Hamilton Anxiety Scale (HAM-A).
# [3] = test system: treatment-adherent patients with treatment-resistant depression; experiment: Analysis of treatment-adherent patients of the Phase 3 trial (Example 2); conditions: both, human, in vivo, 6 weeks
# Procedure: It was discovered in this study that measurement of plasma drug concentrations is a direct method of assessing treatment adherence.
# (§1) In the patients of Example 1, plasma samples were collected after up to 6 weeks of treatment in the clinical trial (end of treatment visit) and analyzed.
# (§2) The selected drug concentration cutoffs approximate the lowest observed concentrations 24 hours after the last dose of the study drug under 100% adherent conditions. The 15 ng/mL threshold at 24 hours after the last dose corresponds to a plasma concentration of about 19 ng/mL at about 12 hours after a dose that is administered after steady state has been achieved (e.g., day 42).
# Other efficacy assessments included Quick Inventory Depressive Symptoms-Self Report (QIDS-SR-16), Hamilton Anxiety Rating Scale, and Cognition and Physical Functioning Questionnaire (CPFQ).
# Demographics and baseline characteristics were similar across both treatment groups.
# [4] = Plasma drug concentration cutoffs for treatment adherence; conditions: human, in vivo
# Procedure: as §1, §2
# [5] = Solubility of the drug powder in water
# [6] = subject combination administered with food
compound,measurement,setting,value
C[C@H](NC(C)(C)C)[C@@H](O)c1cccc(Cl)c1 [threohydroxybupropion],extent of protein binding compared with bupropion,plasma protein,about half that seen with bupropion
same,AUC0-12 of metabolite relative to that of bupropion,[1],about 7 times
same,Cmax of metabolite relative to peak level of bupropion,[1],about 5 times
same,apparent elimination half-life (metabolites),[1]; human,~33 h
C[C@H]1NC(C)(C)CO[C@]1(O)c1cccc(Cl)c1 [hydroxybupropion],AUC0-12 of metabolite relative to that of bupropion,[1],about 19 times
same,Cmax of metabolite relative to peak level of bupropion,[1],approximately 14 times
same,apparent elimination half-life (metabolites),[1]; human,approximately 35 hours
"CC(NC(C)(C)C)C(=O)c1cccc(Cl)c1.Cl (racemic) [bupropion, (±)-1-(3-chlorophenyl)-2-[(1,1-dimethylethyl)amino]-1-propanone hydrochloride]",fraction unbound,Plasma protein binding,0.16
same,rate of remission from depression (QIDS-SR-16≤5) at Week 6,"[2]; % of patients, p=0.012",8.2%
same,rate of discontinuation due to adverse events,"[2]; both, human, in vivo, 6 weeks",1.9%
same,MADRS mean reduction averaged over the entire 6-week treatment period,"[2]; key secondary endpoint, DM/BU n=154, bupropion n=155, p=0.031",6.7
same,MADRS mean reduction at Week 1,"[2]; key secondary endpoint, p=0.02",3.6
same,MADRS mean reduction at Week 2,"[2]; key secondary endpoint, p=0.035",6.1
same,QIDS-SR-16 mean reduction averaged over the entire 6-week treatment period,[2]; p=0.013,2.3
same,MADRS mean reduction at Week 6,"[2]; primary endpoint, p=0.117, did not reach statistical significance",9.4
same,Blood pressure increased,[3],0 (0.0%)
same,Dizziness,[3],0 (0.0%)
same,Dry mouth,[3],3 (2.3%)
same,Headache,[3],6 (4.5%)
same,Nasopharyngitis,[3],0 (0.0%)
same,Nausea,[3],2 (1.5%)
same,Somnolence,[3],2 (1.5%)
same,rate of discontinuation due to adverse events,[3],0.8%
same,concentration at 24 h,[4],~10 ng/mL
same,solubility in water,[5],highly soluble in water
same,accumulation ratio at steady state based on AUC0-12,[1],1.5
same,accumulation ratio at steady state based on Cmax,[1],1.1
same,Tmax,"[1]; human, plasma, oral",~2 h
same,increase of AUC0-12 with food,[1]; [6],6%
same,increase of Cmax with food,[1]; [6],3%
CC(NC(C)(C)C)C(O)c1cccc(Cl)c1 (centres unmarked) [erythrohydroxybupropion],AUC0-12 of metabolite relative to that of bupropion,[1],about 1.2 times
same,Cmax of metabolite relative to peak level of bupropion,[1],approximately equal to
same,apparent elimination half-life (metabolites),[1]; human,~44 h
"COc1ccc2c(c1)[C@]13CCCC[C@@H]1[C@H](C2)N(C)CC3 [dextromethorphan, morphinan, 3-methoxy-17-methyl-, (9α, 13α, 14α), hydrobromide monohydrate]",concentration at 12 h,"[4]; dose administered after steady state (e.g., day 42), read-out: corresponding plasma concentration at about 12 hours after a dose",~19 ng/mL
same,concentration at 24 h,"[4]; under 100% adherent conditions, read-out: plasma concentration cutoff approximating the lowest observed concentration 24 hours after the last dose",~15 ng/mL
same,solubility in water,[5],sparingly soluble in water
same,increase of mean elimination half-life as compared to dextromethorphan given without bupropion,"[1]; following 8 days of the subject combination, extensive metabolizers",approximately 3 fold
same,accumulation ratio at steady state based on AUC0-12,[1],about 32
same,accumulation ratio at steady state based on Cmax,[1],about 20
same,change of Cmax with food,[1]; [6],unchanged
same,decrease of AUC0-12 with food,[1]; [6],14%
